Data on 33 compounds can be found in patent US20240308985A1 (Psy Therapeutics, Inc., priority 2021, published 2024).

This test addresses Monoacylglycerol Lipase (MAGL) (Homo sapiens (Human), UniProt Q99685). The test can be described thus: MAGL inhibition potency (IC50) assay with 4NPA substrate. The format is biochemical. An excerpt: The potency of certain compounds for inhibiting MAGL were obtained using the following assays. The monoacylglycerol lipase inhibitor screening assay kit from Cayman Chemical was used to measure the MAGL potency for the compounds in Table 6 and Table 7. Cayman's Monoacylglycerol Lipase Inhibitor Screening Assay provides a method for screening human MAGL inhibitors. MAGL hydrolyzes 4-nitrophenylacetate resulting in a yellow product, 4-nitrophenol, with an absorbance of 405-412 nm. MAGL Inhibition was measured by the following assay. Monoacylglycerol Lipase (MAGL) inhibition was measured using recombinant MAGL enzyme (aa 2-303 RBC, internal preparation) and the substrate 4-Nitrophenyl acetate (4NPA) (Sigma-Aldrich, N8130). Hydrolysis of the substrate in the presence of the enzyme was measured by absorbance at 405 nm. 10 μL of assay buffer (10 mM Tris pH 7.5, 1 mM EDTA, 0.9% DMSO) was added to a black 384-well non-binding plate with clear bottom (Greiner, 781906) for each reaction. […] DMSO control wells were included for reference. A 10.8 nM (1.8×) MAGL mix in assay buffer was prepared, with 25 μL added to each reaction well, for a final assay concentration of 6 nM. No enzyme wells received 25 μL of buffer. Plate was incubated at room temperature for 30 minutes. 35 mM solution of 4NPA in methanol was prepared daily. A 4.5×4NPA substrate solution was prepared in assay buffer and 10 μL was added to each reaction well, for a final assay concentration of 0.25 mM. Plate was spun for 1 minute at 1000 rpm before measuring absorbance using a CLARIOstar plate reader (BMG Labtech). A kinetic reading at 405 nm was done every minute for 30 minutes. Data was analyzed using the linear slope of the reaction progress curve and the average of the no-enzyme wells (background) was subtracted from the data. The background-subtracted slope data was converted to % activity using the average of wells with enzyme and DMSO vehicle. IC50s were calculated using GraphPad software (Sigmoidal dose response, variable slope equation). […] Table 8 provides potency measurements of MAGL inhibition measured using the Potency Assay of Example 22 above, with the following modifications described in Table C. [table]

Setting [1] is: Method 2: Cayman Chemical MAGL enzyme, 10 nM, read-out: Potency (MAGL inhibition).
The mark [2] stands for this setting: Method 11: Reaction Biology MAGL enzyme, 25 nM (name: Conc 20), read-out: MAGL Potency (Detection Method).
Setting [3] is: Method 14: Reaction Biology MAGL enzyme, 6 nM, read-out: MAGL Potency (Detection Method).
[4] abbreviates: Method 6: Reaction Biology MAGL enzyme, 6 nM, read-out: MAGL Potency (Detection Method).
Setting [5] is: Method 14: Reaction Biology MAGL enzyme, 6 nM, read-out: Potency (MAGL inhibition).

SMILES strings stand for the structures. Where two headings read alike, the source gives them in different places.

Monoacylglycerol Lipase (MAGL), sequence (Q99685 2-303): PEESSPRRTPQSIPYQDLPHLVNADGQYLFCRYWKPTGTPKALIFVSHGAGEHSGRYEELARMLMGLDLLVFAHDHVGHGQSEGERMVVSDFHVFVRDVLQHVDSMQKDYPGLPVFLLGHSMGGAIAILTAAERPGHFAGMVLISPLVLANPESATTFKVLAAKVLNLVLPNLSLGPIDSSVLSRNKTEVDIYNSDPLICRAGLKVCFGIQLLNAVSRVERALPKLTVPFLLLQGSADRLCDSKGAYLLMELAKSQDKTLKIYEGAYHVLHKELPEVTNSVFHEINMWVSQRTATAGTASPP

In the case of `Cc1cc(C2CC3(C2)CN(C(=O)c2ccn(C)c2)C3)n(-c2ccccc2C)n1` [Compound 182], the IC50 under setting [1] is over 10000 nM.

With `Cc1cc(C2CC3(C2)CN(C(=O)c2cc[nH]c2)C3)n(-c2ccccc2C)n1` [Compound 184], the IC50 under setting [1] is over 10000 nM.

Take `COc1ccccc1C(=O)N1CC2(CC(c3cc(C)nn3-c3ccccc3C)C2)C1` [Compound 143, (2-methoxyphenyl)(6-(3-methyl-1-(o-tolyl)-1H-pyrazol-5-yl)-2-azaspiro[3.3]heptan-2-yl)methanone]: the IC50 (Method 2: Cayman Chemical MAGL enzyme, 10 nM, read-out: MAGL Potency (Detection Method)) is 1000 to 5100 nM.

For the compound `O=C(c1c(F)cccc1OC1CC1)N1CC2(CC(n3cc(C(F)(F)F)c(-c4ccccc4F)n3)C2)C1` [Compound 522, (2-cyclopropoxy-6-fluorophenyl){6-[3-(o-fluorophenyl)-4-(trifluoromethyl)-1-pyrazolyl]-2-aza-2-spiro[3.3]heptyl}methanone], the IC50 (Method 12: Reaction Biology MAGL enzyme, 15 nM, read-out: MAGL Potency (Detection Method)) is 1000 to 5100 nM.

Consider `Cc1ccc(F)cc1-c1cc(C(F)(F)F)n(C2CC3(C2)CN(C(=O)c2ccc(F)cc2OC2CC2)C3)n1` [Compound 456, (2-cyclopropoxy-4-fluorophenyl){6-[3-(5-fluoro-2-tolyl)-5-(trifluoromethyl)-1-pyrazolyl]-2-aza-2-spiro[3.3]heptyl}methanone], for which the IC50 under setting [2] was 500 to 1000 nM.

`Cc1cc(C2CC3(C2)CN(C(=O)c2ccc(F)cc2OC2CC2)C3)n(-c2ccccc2C)n1` [Compound 374, (2-cyclopropoxy-4-fluorophenyl) {6-[3-methyl-1-(o-tolyl)-5-pyrazolyl]-2-aza-2-spiro[3.3]heptyl}methanone]: the IC50 under setting [3] lay in the range of 150 to 500 nM.

Regarding `Cc1cn(C2CC3(C2)CN(C(=O)c2ccc(F)cc2OC2CC2)C3)nc1-c1ccccc1F` [Compound 425, (2-cyclopropoxy-4-fluorophenyl){6-[3-(o-fluorophenyl)-4-methyl-1-pyrazolyl]-2-aza-2-spiro[3.3]heptyl}methanone], the IC50 under setting [4] is 150 to 500 nM.

As to `Cc1cc(C2CC3(C2)CN(C(=O)c2cccc4c2CCO4)C3)n(-c2ccccc2C)n1` [Compound 403], under setting [5], the IC50 is over 10000 nM.

Consider `Cc1cn(C2CC3(C2)CN(C(=O)c2ccc(F)cc2OC2CC2)C3)nc1-c1ccccc1C(F)(F)F` [Compound 448, (2-cyclopropoxy-4-fluorophenyl)(6-{4-methyl-3-[o-(trifluoromethyl)phenyl]-1-pyrazolyl}-2-aza-2-spiro[3.3]heptyl)methanone], for which the IC50 under setting [4] was 50 to 150 nM.

On to `Cc1ccccc1-c1cc(C)n(C2CC3(C2)CN(C(=O)c2ccc(F)cc2OCC(F)(F)F)C3)n1` [Compound 465, [4-fluoro-2-(2,2,2-trifluoroethoxy)phenyl]{6-[5-methyl-3-(o-tolyl)-1-pyrazolyl]-2-aza-2-spiro[3.3]heptyl}methanone], for which the IC50 under setting [2] is 150 to 500 nM.

Consider `CCOc1cc(F)ccc1C(=O)N1CC2(CC(n3nc(C)cc3-c3ccccc3C)C2)C1` [Compound 460], for which, under setting [2], the IC50 lay in the range of 1000 to 5100 nM.

On to `Cc1cc(C2CC3(C2)CN(C2CCOc4ccccc42)C3)n(-c2ccccc2C)n1` (stereo not drawn) [Compound 152], for which, under setting [1], the IC50 was over 10000 nM.

Take `Cc1cc(C2CC3(C2)CN([C@@H]2COc4ccccc42)C3)n(-c2ccccc2C)n1` [Compound 155]: the IC50 under setting [1] is over 10000 nM.

As to `Cc1ccc(F)cc1-c1c(C)cnn1C1CC2(C1)CN(C(=O)c1ccc(F)cc1OC1CC1)C2` [Compound 422, (2-cyclopropoxy-4-fluorophenyl){6-[5-(5-fluoro-2-tolyl)-4-methyl-1-pyrazolyl]-2-aza-2-spiro[3.3]beptyl}methanone], the IC50 under setting [4] lay within 1000 to 5100 nM.

Regarding `Cc1cc(C2CC3(C2)CN([C@H]2COc4ccccc42)C3)n(-c2ccccc2C)n1` [Compound 154], under setting [1], the IC50 is over 10000 nM.

With `Cc1cnn(C2CC3(C2)CN(C(=O)c2ccc(F)cc2OC2CC2)C3)c1-c1ccccc1C(F)(F)F` [Compound 420, (2-cyclopropoxy-4-fluorophenyl)(6-{4-methyl-5-[o-(trifluoromethyl)phenyl]-1-pyrazolyl}-2-aza-2-spiro[3.3]heptyl)methanone], the IC50 under setting [4] fell in the range of 1000 to 5100 nM.

Turning to `Cc1cnn(C2CC3(C2)CN(C(=O)c2cc(O)ccc2F)C3)c1-c1ccccc1Cl` [Compound 404], the IC50 (Method 6: Reaction Biology MAGL enzyme, 6 nM, read-out: Potency (MAGL inhibition)) is over 10000 nM.

`Cc1ccc(F)cc1-c1cc(C)n(C2CC3(C2)CN(C(=O)c2ccc(F)cc2OC(F)F)C3)n1` [Compound 455, (2-difluoromethoxy-4-fluorophenyl){6-[3-(5-fluoro-2-tolyl)-5-methyl-1-pyrazolyl]-2-aza-2-spiro[3.3]heptyl}methanone]: the IC50 under setting [4] lay in the range of 50 to 150 nM.

`Cc1cc(C2CC3(C2)CN(Cc2cc(O)ccc2F)C3)n(-c2ccccc2C)n1` [Compound 150]: the IC50 (read-out: Potency (MAGL inhibition)) is over 10000 nM.

For the compound `Cc1cc(C2CC3(C2)CN(C(=O)c2cc(O)c(F)cc2F)C3)n(-c2ccccc2C)n1` [Compound 126, (2,4-difluoro-5-hydroxyphenyl)(6-(3-methyl-1-(o-tolyl)-1H-pyrazol-5-yl)-2-azaspiro[3.3]heptan-2-yl)methanone], the IC50 (Methods 1, 2, 3, read-out: MAGL Potency (Detection Method)) was under 50 nM.

As for `Cc1cc(C2CC3(C2)CN(C(=O)c2cc(O)c(C)cc2F)C3)n(-c2ccccc2C)n1` [Compound 371, (2-fluoro-5-hydroxy-4-tolyl){6-[3-methyl-1-(o-tolyl)-5-pyrazolyl]-2-aza-2-spiro[3.3]heptyl}methanone], the IC50 under setting [3] fell in the range of 50 to 150 nM.

For the compound `CCOc1cc(F)ccc1C(=O)N1CC2(CC(C(=O)N(C)c3ccccc3C(C)C)C2)C1` [Compound 205, N-o-cumenyl-N-methyl-2-(2-ethoxy-4-fluorobenzoyl)-2-aza-6-spiro[3.3]heptanccarboxamide], the IC50 (Method 4: Cayman Chemical MAGL enzyme, 15 nM, read-out: MAGL Potency (Detection Method)) fell in the range of 500 to 1000 nM.

For `Cc1ccc(F)cc1-c1cc(C)n(C2CC3(C2)CN(C(=O)c2ccc(F)cc2OC2CC2)C3)n1` [Compound 450, (2-cyclopropoxy-4-fluorophenyl){6-[3-(5-fluoro-2-tolyl)-5-methyl-1-pyrazolyl]-2-aza-2-spiro[3.3]heptyl}methanone], under setting [4], the IC50 was 150 to 500 nM.

In the case of `Cc1cc(C2CC3(C2)CN(C(=O)c2ccoc2)C3)n(-c2ccccc2C)n1` [Compound 179], the IC50 under setting [1] was over 10000 nM.

`Cc1cnn(C2CC3(C2)CN(C(=O)c2cc(O)ccc2F)C3)c1-c1ccccc1F` [Compound 408, (2-fluoro-5-hydroxyphenyl){6-[5-(o-fluorophenyl)-4-methyl-1-pyrazolyl]-2-aza-2-spiro[3.3]heptyl}methanone]: the IC50 under setting [4] lay in the range of 50 to 150 nM.

Regarding `Cc1cnn(C2CC3(C2)CN(C(=O)c2ccc(F)cc2OC2CC2)C3)c1-c1ccccc1F` [Compound 452, (2-cyclopropoxy-4-fluorophenyl){6-[5-(o-fluorophenyl)-4-methyl-1-pyrazolyl]-2-aza-2-spiro[3.3]beptyl}methanone], the IC50 under setting [4] lay within 1000 to 5100 nM.

Turning to `Cc1ccccc1-c1nn(C2CC3(C2)CN(C(=O)c2cc(O)ccc2F)C3)cc1C` [Compound 440, (2-fluoro-5-hydroxyphenyl){6-[4-methyl-3-(o-tolyl)-1-pyrazolyl]-2-aza-2-spiro[3.3]heptyl}methanone], the IC50 under setting [3] is under 50 nM.

For the compound `Cc1ccc(F)cc1-c1nn(C2CC3(C2)CN(C(=O)c2ccc(F)cc2OC2CC2)C3)cc1C` [Compound 449, (2-cyclopropoxy-4-fluorophenyl){6-[3-(5-fluoro-2-tolyl)-4-methyl-1-pyrazolyl]-2-aza-2-spiro[3.3]beptyl}methanone], the IC50 under setting [4] was 150 to 500 nM.

As to `Cc1ccccc1-c1c(C)cnn1C1CC2(C1)CN(C(=O)c1ccc(F)cc1OC1CC1)C2` [Compound 419, (2-cyclopropoxy-4-fluorophenyl){6-[4-methyl-5-(o-tolyl)-1-pyrazolyl]-2-aza-2-spiro[3.3]heptyl}methanone], the IC50 under setting [4] fell in the range of 1000 to 5100 nM.

For `O=C(c1cc(O)ccc1F)N1CC2(CC(C(=O)N3CCC4(CCCO4)C3)C2)C1` (stereo not drawn) [Compound 400], the IC50 under setting [5] is over 10000 nM.

Turning to `Cc1cc(C2CC3(C2)CN(C(=O)c2ccc[nH]2)C3)n(-c2ccccc2C)n1` [Compound 183], the IC50 under setting [1] is over 10000 nM.

As to `O=C(NCC1COC1)C1CC2(C1)CN(C(=O)c1cc(O)ccc1F)C2` [Compound 395], under setting [5], the IC50 was over 10000 nM.

With `CCOc1cc(F)ccc1C(=O)N1CC2(CC(n3nc(-c4cc(F)ccc4C)cc3C)C2)C1` [Compound 463, (2-ethoxy-4-fluorophenyl){6-[3-(5-fluoro-2-tolyl)-5-methyl-1-pyrazolyl]-2-aza-2-spiro[3.3]heptyl}methanone], the IC50 under setting [2] is 500 to 1000 nM.
